Test results: patent publication US20020006406A1, “METHOD FOR THE TREATMENT OF STAPHYLOCOCCAL DISEASE” (priority 1997, published 2002)
Where two headings read alike, the source gives them in different places. Marks after values point to notes of the source that are not given here.

Legend:
S. aureus [1] = assay: MIC by standard broth microdilution; assay type: cell-based
From the text: (§1) Approved Standard M7-A3. Methods for dilution antimicrobial susceptibility tests for bacteria that grow aerobically—Third edition. National Committee for Clinical Laboratory Standards, Villanova, Pa.; National Committee for Clinical Laboratory Standards, 1992. Tentative Guideline M26-T. Methods for determining bactericidal activity of antimicrobial agents. National Committee for Clinical Laboratory Standards, Villanova, Pa.].

S. aureus [2] = assay: MBC by standard broth microdilution (kills 99.9% of inoculum in 24 h); assay type: cell-based
From the text: as §1

S. aureus [3] = assay: MIC by broth microdilution with 0.1% BSA in the diluent; assay type: cell-based
Experimental: Lysostaphin sticks to plastic materials and can be lost from solution; this can affect its apparent activity. Therefore, some MIC determinations were also performed with additions of 0.1% bovine serum album (BSA) to the diluent. Otherwise, the method was identical to that cited above. […] Since this observation is related to the affinity of lysostaphin for plastic materials, it is to be expected that, in general, staphylococcal strains are more susceptible to lysostaphin than was observed previously.

S. aureus Smith = assay: Acute S. aureus infection model in mice (survival); assay type: in vivo
Experimental: The efficacy of lysostaphin was compared to that of vancomycin in an acute infection model in mice. S. aureus Smith was cultured overnight, with moderate agitation, in Veal Infusion broth (Difco) and diluted in broth containing 5% hog gastric mucin (Difco). Male Swiss-Webster mice (Taconic Farms, Germantown, N.Y.) weighing approximately 20 grams were infected intraperitoneally with 10^5-10^6 viable cells, approximately tenfold the inoculum that reproducibly killed all untreated animals within 48 h. There were six mice in each treatment group. Lysostaphin was administered intravenously (in 0.1 ml 5% dextrose for injection) or subcutaneously (in 0.2 ml), within 10 min of infection. Vancomycin was administered subcutaneously.

MRSA 27619 = assay: Experimental aortic valve endocarditis in rabbits, MRSA 27619; assay type: in vivo, S. aureus; conditions: for Mean log10CFU/gram of vegetation / Number of sterile vegetations/total animals treated: three days
Experimental: Aortic valve endocarditis was established in New Zealand white rabbits weighing approximately 3 kg. Rabbits were anesthetized and the right carotid artery surgically exposed and cannulated with a polyethylene catheter which was advanced into the left ventricle of the heart. After at least 24 h, the rabbits were infected intravenously with 10^6-10^7 cells of a methicillin-resistant S. aureus strain (MRSA 27619). Twenty-four hours later, the animals were randomly assigned to different treatment groups; untreated control (9 rabbits); positive control, vancomycin 30 mg/kg twice daily (15); lysostaphin 5 mg/kg three times daily (11); lysostaphin 5 mg/kg once daily (10); lysostaphin 5 mg/kg once daily+vancomycin 30 mg/kg twice daily (11).
All treatments were intravenous and were carried out for three days. The state of health of the rabbits was assessed at intervals. The rabbits were sacrificed 18 h after the last treatment. Aortic vegetations were removed and weighed and processed to determine the number of viable bacteria, expressed as log,10CFU/gram. The limit of detection is 10^2 CFU/gram (log10CFU/gram=2.0). The mean titers of bacteria per gram were compared by one-way analysis of variance. The Student-Newman-Keuls test was used to adjust for multiple comparisons.
Comparison of the rates of sterilization were made using Fisher's exact test. Statistical significance was defined as a P value of ≦0.05.
Kidney abscesses were also assessed for the presence of staphylococci.

S. aureus strain AG461 = conditions: strain AG461 (methicillin-resistant clinical isolate)
From the text: The different concentrations of lysostaphin and vancomycin used were one and eight times their respective MIC.

[4] = intraperitoneal infection, cited from earlier work
[5] = test system: Giorgio strain of S. aureus; conditions: mice, cited from earlier work
[6] = at least 50 mg/kg/treatment; cited from earlier work
[7] = single parenteral dose, followed by gentamicin three days later; the patient died; cited from earlier work
[8] = clinical isolates of S. aureus (summary of Table 1a)
[9] = strain 404 (clinical isolate, methicillin-resistant)
[10] = strain 450M (clinical isolate, methicillin-resistant)
[11] = strain 1573 (clinical isolate, methicillin-resistant)
[12] = strain 27222 (clinical isolate, methicillin-resistant)
[13] = strain 27286 (clinical isolate, methicillin-resistant)
[14] = strain 27287 (clinical isolate, methicillin-resistant)
[15] = strain 27295 (clinical isolate, methicillin-resistant)
[16] = strain 27619 (clinical isolate, methicillin-resistant)
[17] = strain 27619VR (laboratory-derived, intermediate susceptibility to vancomycin)
[18] = strain 27621 (clinical isolate, methicillin-resistant)
[19] = strain 27622 (clinical isolate, methicillin-resistant)
[20] = strain 27698 (clinical isolate, methicillin-resistant)
[21] = strain 29293 (clinical isolate, methicillin-resistant)
[22] = strain COL (clinical isolate, methicillin-resistant)
[23] = strain HP5827 (clinical isolate, methicillin-resistant, VISA)
[24] = strain HP5836 (clinical isolate, methicillin-resistant, VISA)
[25] = lysostaphin intravenously vs vancomycin

lysostaphin: recombinant lysostaphin enzyme from fermentation of B. sphaericus; majority component lacks the two N-terminal amino acids of the published sequence
minimal inhibitory concentrations (MIC) (S. aureus [1]; [8]): ≤ 1.0 mg/L
MIC Without BSA (S. aureus [1]; strain 401 (clinical isolate)): 0.5 mg/L
MIC (S. aureus [1]; strain 402 (clinical isolate)): 0.5 mg/L
MIC (S. aureus [1]; [9]): 0.5 mg/L
MIC Without BSA (S. aureus [1]; [9]): 0.5 mg/L
MIC (S. aureus [1]; strain 412): 0.25 mg/L
MIC (S. aureus [1]; strain 414): 0.25 mg/L
MIC Without BSA (S. aureus [1]; strain 414): 0.25 mg/L
MIC (S. aureus [1]; [10]): 0.25 mg/L
MIC (S. aureus [1]; [11]): 0.5 mg/L
MIC (S. aureus [1]; [12]): 0.25 mg/L
MIC (S. aureus [1]; [13]): 0.25 mg/L
MIC (S. aureus [1]; [14]): 0.25 mg/L
MIC Without BSA (S. aureus [1]; [14]): 0.25 mg/L
MIC (S. aureus [1]; [15]): 0.13 mg/L
MIC Without BSA (S. aureus [1]; [15]): 0.13 mg/L
MIC (S. aureus [1]; [16]): 0.25 mg/L
MIC Without BSA (S. aureus [1]; [16]): 0.25 mg/L
MIC (S. aureus [1]; [17]): 0.5 mg/L
MIC (S. aureus [1]; [18]): 0.06 mg/L
MIC (S. aureus [1]; [19]): 0.06 mg/L
MIC (S. aureus [1]; [20]): 0.25 mg/L
MIC (S. aureus [1]; [21]): 0.06 mg/L
MIC (S. aureus [1]; [22]): 0.13 mg/L
MIC (S. aureus [1]; [23]): 0.5 mg/L
MIC (S. aureus [1]; [24]): 0.5 mg/L
minimal bactericidal concentrations (MBC) (S. aureus [2]; [8]): ≤ 1.0 mg/L
MBC (S. aureus [2]; strain 402 (clinical isolate)): 0.5 mg/L
MBC (S. aureus [2]; [9]): 0.5 mg/L
MBC (S. aureus [2]; strain 412): 0.25 mg/L
MBC (S. aureus [2]; strain 414): 0.25 mg/L
MBC (S. aureus [2]; [10]): 0.5 mg/L
MBC (S. aureus [2]; [11]): 1 mg/L
MBC (S. aureus [2]; [12]): 0.25 mg/L
MBC (S. aureus [2]; [13]): 0.5 mg/L
MBC (S. aureus [2]; [14]): 0.25 mg/L
MBC (S. aureus [2]; [15]): 0.25 mg/L
MBC (S. aureus [2]; [16]): 0.5 mg/L
MBC (S. aureus [2]; [17]): 0.5 mg/L
MBC (S. aureus [2]; [18]): 0.25 mg/L
MBC (S. aureus [2]; [19]): 0.25 mg/L
MBC (S. aureus [2]; [20]): 0.5 mg/L
MBC (S. aureus [2]; [21]): 0.25 mg/L
MBC (S. aureus [2]; [22]): 0.25 mg/L
MBC (S. aureus [2]; [23]): 0.5 mg/L
MBC (S. aureus [2]; [24]): 1 mg/L
MIC With BSA (S. aureus [3]; strain 401 (clinical isolate)): 0.015 mg/L
MIC With BSA (S. aureus [3]; [9]): 0.008 mg/L
MIC With BSA (S. aureus [3]; strain 414): 0.03 mg/L
MIC With BSA (S. aureus [3]; strain 417): 0.03 mg/L
MIC With BSA (S. aureus [3]; strain 25756 (clinical isolate, methicillin-resistant)): 0.008 mg/L
MIC With BSA (S. aureus [3]; [14]): 0.03 mg/L
MIC With BSA (S. aureus [3]; [15]): ≦0.004 μg/ml
MIC With BSA (S. aureus [3]; [16]): 0.008 mg/L
% survival (S. aureus Smith; 0.08 mg/kg iv within 10 min of infection): 33%
% survival (S. aureus Smith; 0.16 mg/kg iv within 10 min of infection): 100%
% survival (S. aureus Smith; 0.31 mg/kg iv within 10 min of infection): 100%
% survival (S. aureus Smith; 0.63 mg/kg iv within 10 min of infection): 100%
% survival (S. aureus Smith; 1.25 mg/kg sc): 67%
% survival (S. aureus Smith; 2.5 mg/kg sc): 100%
% survival (S. aureus Smith; 5 mg/kg sc): 100%
% survival (S. aureus Smith; 10 mg/kg sc): 100%
% survival (S. aureus Smith; 20 mg/kg sc): 100%
% survival (S. aureus Smith; Table 4 experiment, dose 0.04 mg/kg): 0%
% survival (S. aureus Smith; Table 4 experiment, dose 0.08 mg/kg): 17%
% survival (S. aureus Smith; Table 4 experiment, dose 0.16 mg/kg): 83%
effectiveness relative to vancomycin, on a molar basis (S. aureus Smith; [25]): about 200 times
effectiveness relative to vancomycin, on a weight basis (S. aureus Smith; [25]): 16 times
Mean log10CFU/gram of vegetation (MRSA 27619; 5 mg/kg once daily iv): 7.08 log10CFU/gram
Number of sterile vegetations/total animals treated (MRSA 27619; 5 mg/kg once daily iv): 2/10
Mean log10CFU/gram of vegetation (MRSA 27619; 5 mg/kg three times daily iv): 2.26 log10CFU/gram
Number of sterile vegetations/total animals treated (MRSA 27619; 5 mg/kg three times daily iv): 10/11^c
bacterial load in kidney abscesses (MRSA 27619; thrice-daily regimen (5 mg/kg), controls just under 10^8 CFU/gram): ~10^2 CFU/gram of tissue
state of health of the rabbits (MRSA 27619; thrice-daily regimen, early in the treatment cycle): all in good health
MIC (lower time-kill concentration stated to be one times MIC) (S. aureus strain AG461): 0.004 mg/L
survival of treated mice ([4]; single or multiple subcutaneous administrations, total approximately 1 mg/kg): 50%
mice protected ([4]; total dosage of 6 mg/kg): 100%
numbers of bacteria in the kidneys ([5]; intravenously within 6 hours after infection, dosages of 1.5 mg/kg or higher): significant reductions
numbers of bacteria in the kidneys ([5]; treatment withheld for 24 hours or longer, dosages of 125 or 250 mg/kg): only modest reductions
effectiveness (health of the dogs, reduction of bacteria in heart valves and kidneys) [6]: only moderately effective
outcome in one very ill human patient [7]: reduction in bacteremia
